Measurements as given in patent EP4361137A1, “PRUNE1 INHIBITORS AND THERAPEUTIC USE THEREOF” (CEINGE Biotecnologie Avanzate Franco Salvatore s.c. a r.l., priority 2022, dated 2024).

Tests used:
human and murine Prune1 = assay: qPCR of PRUNE1 mRNA in MMTV-Prune1/Wnt1 cells; type: cell-based; design: dose or concentration left out as unconfirmed
Description: D425.MED and MMTV-Prune1/Wnt1 cells were plated and treated with increasing concentrations of LEO-AA7.5(S)T for 24 hours. Water-treated cells were used as negative control for the experiments.
RNA samples were extracted using TRIzol RNA Isolation Reagent (15596026, Invitrogen), according to the manufacturer instructions. Reverse transcription was performed with 5× All-In-One RT MasterMix (g592; ABM), according to the manufacturer instructions. The reverse transcription products (cDNA) were amplified by qRT-PCR using an RT-PCR system (7900; Applied Biosystems, Foster City, CA, USA). The cDNA preparation was through the cycling method, by incubating the complete reaction mix as follows: cDNA reactions: (37 °C for 10 min and 60 °C for 15 min); Heat-inactivation: 95 °C for 3 min; Hold stage: 4 °C. The targets were detected with the SYBR green approach, using BrightGreen BlasTaq 2× PCR MasterMix (G895; ABM). Human ACTB was used as the housekeeping gene to normalize the quantification cycle (Cq) values of the other genes. […] Relative expression of the target genes was determined using the 2^-ΔΔCq method, as the fold increase compared with the controls. […]

MATH1-Prune1/ TP53-/- = assay: Orthotopic implantation of MATH1-Prune1/TP53-/- cells in immunocompetent syngeneic mice, survival analysis; type: in vivo, FVB WT mice
Description: MATH1-Prune1/ TP53-/- were implanted into the right cerebellar hemisphere of female (n.24) immunocompetent syngeneic mice model (5 weeks old, strain: FVB WT). to establish intracerebellar MATH1-Prune1/ TP53-/- models, mice were anaesthetised with Ketamine/ Xylazine (87.5 mg/kg, 12.5 mg/kg, respectively). The mice were then placed in a stereotactic frame by hooking their incisors onto the frame hold. […] The mice were monitored daily for development of potential neurological deficits. For LEO-AA7.5(S)T in-vivo treatment, starting after 10 days from tumour implantation (i.e., once the tumours were established) the mice (grouped according to body weight values) were injected intraperitoneally with LEO-AA7.5(S)T at 6 mg/kg/day, or with water as the vehicle for the control group. mouse body weights were measured at the indicated time points. Mouse survival was closely monitored during the entire experimental period.

Compound: COc1ccc(CNc2ncnc(N3CCC[C@H](CO)C3)n2)cc1.Cl [LEO-AA7.5(S)T, (S)-(1-(4-((4-methoxybenzyl)amino)-1,3,5-triazin-2-yl)piperidin-3-yl)methanol HCl salt]
- degradation of human and murine Prune transcript (human and murine Prune1): enhance the degradation
- toxic effects (body weight) (MATH1-Prune1/ TP53-/-; 6 mg/kg/day intraperitoneally): no toxic effects
- overall survival (MATH1-Prune1/ TP53-/-; 6 mg/kg/day intraperitoneally from day 10 after implantation): improved overall survival
